Several values for one entry are separate records, joined by “and”; a condition that tells them apart may be missing. Equal values may be shown once. Read-outs that look alike come from different tables or passages of the source.
What was measured:
4F2hc-LAT1 [1] = tested on: 4F2hc-LAT1; design: method as in Yun et al. (2014); details: host YD-38; ref Yun et al. (2014); read-out: 4F2hc-LAT1 IC50 of L-leucine uptake; cited from earlier work
4F2hc-LAT1 [2] = details: host Saos2, read-out: 4F2hc-LAT1 IC50 of L-leucine uptake, cited from earlier work
human 4F2hc-LAT2 [3] = molecular target: T1, human 4F2hc-LAT2 (Homo sapiens, UniProt Q9UHI5); details: cited from earlier work; for IC50: host S2 cells, read-out: 4F2hc-LAT2 IC50 of L-leucine uptake
T1 construct: expressed in transfected cells; host or cells: Pichia pastoris KM71H (pPICZB vector)
T1 sequence (Q9UHI5 1-535): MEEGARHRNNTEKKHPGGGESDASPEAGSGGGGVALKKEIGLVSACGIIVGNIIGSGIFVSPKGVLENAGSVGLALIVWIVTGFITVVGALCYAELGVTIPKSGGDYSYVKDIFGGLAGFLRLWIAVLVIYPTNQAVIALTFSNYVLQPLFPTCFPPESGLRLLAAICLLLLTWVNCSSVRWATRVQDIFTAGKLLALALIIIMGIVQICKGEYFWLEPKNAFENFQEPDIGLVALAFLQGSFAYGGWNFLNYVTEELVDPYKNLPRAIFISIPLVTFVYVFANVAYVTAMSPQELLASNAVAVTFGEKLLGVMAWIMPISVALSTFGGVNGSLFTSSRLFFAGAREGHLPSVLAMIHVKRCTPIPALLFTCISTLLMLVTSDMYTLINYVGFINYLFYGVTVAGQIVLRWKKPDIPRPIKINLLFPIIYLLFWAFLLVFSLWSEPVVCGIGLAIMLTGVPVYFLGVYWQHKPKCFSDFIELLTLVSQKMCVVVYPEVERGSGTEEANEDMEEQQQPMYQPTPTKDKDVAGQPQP
T1 sequence (P08195 1-529 partner): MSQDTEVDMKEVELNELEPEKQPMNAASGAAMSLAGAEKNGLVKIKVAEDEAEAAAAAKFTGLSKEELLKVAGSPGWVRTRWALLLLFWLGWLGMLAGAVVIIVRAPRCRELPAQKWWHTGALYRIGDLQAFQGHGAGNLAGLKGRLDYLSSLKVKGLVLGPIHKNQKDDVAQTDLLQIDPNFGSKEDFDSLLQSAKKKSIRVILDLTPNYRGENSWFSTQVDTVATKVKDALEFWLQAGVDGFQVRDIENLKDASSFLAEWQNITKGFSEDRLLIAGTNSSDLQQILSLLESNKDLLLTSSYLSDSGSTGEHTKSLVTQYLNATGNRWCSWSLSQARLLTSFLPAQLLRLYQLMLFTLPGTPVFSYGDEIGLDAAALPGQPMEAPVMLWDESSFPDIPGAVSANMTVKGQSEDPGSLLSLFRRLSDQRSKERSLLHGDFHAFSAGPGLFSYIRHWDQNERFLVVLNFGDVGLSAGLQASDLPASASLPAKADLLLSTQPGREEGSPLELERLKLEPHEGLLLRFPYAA

4F2hc-LAT1 [4] = tested on: 4F2hc-LAT1; design: method as in Kim et al. (2008); details: host C6 cells; reference cell empty, line above: ref Kim et al. (2008); read-out: 4F2hc-LAT1 IC50 of L-leucine uptake; cited from earlier work
4F2hc-LAT1 [5] = tested on: 4F2hc-LAT1; design: method as in Kim et al. (2008); details: host KB cells; ref Kim et al. (2008); read-out: 4F2hc-LAT1 IC50 of L-leucine uptake; cited from earlier work
human LAT2 = molecular target: T2, human LAT2 (Homo sapiens, UniProt Q9UHI5); assay: [3H]L-leucine radioligand transport assay, P. pastoris cells expressing LAT2; type: cell-based; details: P. pastoris KM71H cells, OD600 0.75, 0.1 µM [3H]L-leucine, 10 min uptake, 25°C
T2 construct: expressed in transfected cells; host or cells: Pichia pastoris KM71H (pPICZB vector)
T2 sequence (Q9UHI5 1-535): T1 sequence (Q9UHI5 1-535)

human 4F2hc-LAT2 [6] = molecular target: T1, human 4F2hc-LAT2; assay: [3H]L-leucine radioligand transport assay, P. pastoris cells expressing 4F2hc-LAT2; type: cell-based; details: P. pastoris KM71H cells, OD600 0.75, 0.1 µM [3H]L-leucine, 10 min uptake, 25°C; read-out: IC50 of L-leucine uptake, 4F2hc-LAT2 (this work)
human 4F2hc-LAT1 = molecular target: T3, human 4F2hc-LAT1 (Homo sapiens, UniProt Q01650); assay: [3H]L-leucine radioligand transport assay, P. pastoris cells expressing 4F2hc-LAT1; type: cell-based
T3 construct: expressed in transfected cells; host or cells: Pichia pastoris KM71H (pPICZB vector)

4F2hc-LAT1 [7] = tested on: 4F2hc-LAT1; design: method as in Khunweeraphong et al. (2012); details: host HEK293; ref Khunweeraphong et al. (2012); read-out: 4F2hc-LAT1 IC50 of L-leucine uptake; cited from earlier work
4F2hc-LAT1 [8] = details: cited from earlier work; for IC50: read-out: 4F2hc-LAT1 IC50 of L-leucine uptake
human LAT1 [9] = molecular target: T4, human LAT1 (Homo sapiens, UniProt Q01650); assay: cell-based
Experimental: (§1) Resulting cells were resuspended in transport buffer (150 mM choline chloride, 1 mM MgCl2, 1 mM CaCl2, 10 mM Tris-HEPES, pH 7.4) containing 50% (v/v) glycerol and the OD600 was adjusted to 40. Cells were stored at −18°C until further use.
(§2) For transport studies, 1 ml of thawed P. pastoris cells (OD600 40) expressing the corresponding transporter were diluted in 50 ml transport buffer and pelleted by centrifugation (3,000 × g, 15 min, room temperature). The pellet was then washed by resuspending it in 50 mL transport buffer and by repeating the washing procedure (centrifugation and resuspension) two times. Finally, the cell pellet was resuspended in 2 ml of transport buffer and incubated for 20 min at 30°C under agitation (300 rpm, Multitron, Infors HT, Bottmingen, Switzerland). […] All transport experiments were performed in a reaction volume of 100 µL. […] The competitors were prepared in 100% (v/v) DMSO. The final DMSO concentration was always 0.5% (v/v), independently of which final substrate or inhibitor concentration was used in the assay. Control samples contained the same concentration of DMSO. Final OD600 values in uptake experiments were 0.75 for all cells (4F2hc-LAT1, LAT1, 4F2hc-LAT2 or LAT2 expressing cells) and untransformed P. pastoris KM71H cells. All transport reactions were done in 2 ml reaction tubes (Eppendorf, Hamburg, Germany) at 25°C under agitation (1,000 rpm, Thermomixer compact, Eppendorf, Hamburg, Germany). Uptakes were terminated after 10 min (uptake time) for all cells by adding 600 µL of pre-chilled transport buffer. Cells were rapidly separated from the buffer by transferring the stopped reactions on a 96-well 0.66 mm glass fiber filter plate (Corning FiltrEX, Corning, NY, United States) and vacuum filtration. Each well was washed with 2 ml of ice-cold transport buffer to remove free radioligand. The plate was then dried overnight at 37°C, and the backside was sealed with a BackSeal (PerkinElmer, Waltham, MA, United States). The trapped radioligand was released by addition of 200 µL scintillation cocktail (MicroScint 40, PerkinElmer, Waltham, MA, United States) to each well, and the plate topside was sealed with Topseal^TM-A Plus (PerkinElmer, Waltham, MA, United States), followed by incubation for 30 min at 25°C and 1,000 rpm (Thermomixer compact, Eppendorf, Hamburg, Germany). Counts were measured in each well for 2 min with a scintillation counter (TopCount NXT, PerkinElmer, Waltham, MA, United States).
(§3) Experiments were performed at least in triplicate. For data analysis, the signal of the untransformed P. pastoris cells was subtracted from the transporter signal to obtain the net transport signal. Data from three independent experiments were taken. […] Every experimental data point was then individually normalized using the corresponding upper plateau values (i.e., the fitted upper plateau value that corresponds to 100%). Single, normalized data points from the three independent experiments were averaged and a sigmoidal model curve was fitted to the data in order to obtain the IC50 values. Prism6 (GraphPad Software) was used for data analysis.

4F2hc-LAT1 [10] = tested on: 4F2hc-LAT1; design: method as in Yothaisong et al. (2017); details: host KKU-055; ref Yothaisong et al. (2017); read-out: 4F2hc-LAT1 IC50 of L-leucine uptake; cited from earlier work
4F2hc-LAT1 [11] = tested on: 4F2hc-LAT1; design: method as in Yothaisong et al. (2017); details: host KKU-100; ref Yothaisong et al. (2017); read-out: 4F2hc-LAT1 IC50 of L-leucine uptake; cited from earlier work
4F2hc-LAT1 [12] = tested on: 4F2hc-LAT1; design: method as in Häfliger et al. (2018); details: host 8505c; ref Häfliger et al. (2018); read-out: 4F2hc-LAT1 IC50 of L-leucine uptake; cited from earlier work
4F2hc-LAT1 [13] = tested on: 4F2hc-LAT1; design: method as in Yothaisong et al. (2017); details: host KKU-213; ref Yothaisong et al. (2017); read-out: 4F2hc-LAT1 IC50 of L-leucine uptake; cited from earlier work
4F2hc-LAT1 [14] = tested on: 4F2hc-LAT1; design: method as in Häfliger et al. (2018); details: host SW1736; ref Häfliger et al. (2018); read-out: 4F2hc-LAT1 IC50 of L-leucine uptake; cited from earlier work
4F2hc-LAT1 [15] = tested on: 4F2hc-LAT1; design: method as in Häfliger et al. (2018); details: host HT-29; ref Häfliger et al. (2018); read-out: 4F2hc-LAT1 IC50 of L-leucine uptake; cited from earlier work
human LAT1 [16] = molecular target: T4, human LAT1; details: Pichia cells expressing the light subunits alone
Experimental: as §1, §2, §3

4F2hc-LAT1 [17] = tested on: 4F2hc-LAT1; design: method as in Kantipudi et al. (2020); details: host Pichia pastoris, ref Kantipudi et al. (2020), cited from earlier work
4F2hc-LAT2 [18] = tested on: 4F2hc-LAT2; design: method as in Kantipudi et al. (2020); details: host Pichia pastoris, ref Kantipudi et al. (2020), cited from earlier work
4F2hc-LAT2 [19] = tested on: 4F2hc-LAT2; design: method as in Pineda et al. (1999); details: host Oocytes; ref Pineda et al. (1999); cited from earlier work
4F2hc-LAT1 [20] = details: host Oocytes, cited from earlier work
[21] = P. pastoris KM71H cells, OD600 0.75, 0.1 µM [3H]L-leucine, 10 min uptake, 25°C, read-out: IC50 of L-leucine uptake, 4F2hc-LAT1 (this work)

T3 sequence (Q01650 whole entry, one chain of several): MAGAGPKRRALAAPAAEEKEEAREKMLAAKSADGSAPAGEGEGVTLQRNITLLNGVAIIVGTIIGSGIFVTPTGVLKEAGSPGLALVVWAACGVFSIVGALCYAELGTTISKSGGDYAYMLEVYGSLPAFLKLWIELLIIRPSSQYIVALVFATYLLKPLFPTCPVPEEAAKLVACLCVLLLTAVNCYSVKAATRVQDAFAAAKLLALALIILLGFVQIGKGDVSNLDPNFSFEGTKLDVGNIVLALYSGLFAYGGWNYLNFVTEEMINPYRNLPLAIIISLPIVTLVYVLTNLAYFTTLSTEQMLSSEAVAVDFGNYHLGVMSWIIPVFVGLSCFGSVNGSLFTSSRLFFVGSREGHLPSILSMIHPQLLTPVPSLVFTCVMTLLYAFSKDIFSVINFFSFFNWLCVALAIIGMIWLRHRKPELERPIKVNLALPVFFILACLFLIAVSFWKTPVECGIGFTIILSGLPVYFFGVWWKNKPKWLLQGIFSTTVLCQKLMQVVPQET
T4 sequence (Q01650 whole entry): as the sequence (Q01650 whole entry, one chain of several) above

## NC1(C(=O)O)CC2CCC1C2 (stereo not shown) [BCH, 2-aminobicyclo-(2,2,1)-heptane-2-carboxylic acid]
4F2hc-LAT1 [1]
  IC50: 92.6 ± 8.9 µM
4F2hc-LAT1 [2]; ref Choi et al. (2017)
  IC50: 72.2 ± 0.92 µM
4F2hc-LAT1 [2]; ref Kim et al. (2008)
  IC50: 78.8 ± 3.5 µM
Human 4F2hc-LAT2 [3]; ref Morimoto et al. (2008)
  IC50: 315 ± 68.6 µM
4F2hc-LAT1 [4]
  IC50: 73.1 ± 4.5 µM
4F2hc-LAT1 [5]
  IC50: 75.3 ± 6.7 µM
Human LAT2
  IC50: 184 µM
Human 4F2hc-LAT2 [6]
  IC50: 195 µM
Human 4F2hc-LAT1; [21]
  IC50: 72 µM
Human 4F2hc-LAT1; P. pastoris cell assay
  specificity for 4F2hc-LAT1 compared with 4F2hc-LAT2 (from IC50s): about 2.7 fold
4F2hc-LAT1 [7]
  IC50: 78.3 ± 12.1 µM
4F2hc-LAT1 [8]; host S2 cells, ref Morimoto et al. (2008)
  IC50: 132 ± 27.8 µM
Human LAT1 [9]
  IC50: 78 µM

## Nc1cc(COc2c(Cl)cc(C[C@H](N)C(=O)O)cc2Cl)c2oc(-c3ccccc3)nc2c1 [JPH203, (S)-2-amino-3-(4-((5-amino-2-phenylbenzo [d]oxazol-7-yl)-methoxy)-3,5-dichlorophenyl)-propanoic acid]
4F2hc-LAT1 [1]
  IC50: 0.79 ± 0.06 µM
4F2hc-LAT1 [10]
  IC50: 0.2 ± 0.03 µM
4F2hc-LAT1 [2]; ref Choi et al. (2017)
  IC50: 1.31 ± 0.27 µM
Human 4F2hc-LAT2 [3]; S2 cell-based assay, at 10 µM, ref Endou et al. (2008)
  inhibition of human 4F2hc-LAT2: almost no inhibition
Human 4F2hc-LAT2 [3]; ref Oda et al. (2010)
  IC50: > 10 µM
4F2hc-LAT1 [11]
  IC50: 0.25 ± 0.04 µM
Human LAT2
  IC50: 1.7 µM
Human 4F2hc-LAT2 [6]
  IC50: 1.5 µM
4F2hc-LAT1 [12]
  IC50: 0.12 µM
4F2hc-LAT1 [13]
  IC50: 0.12 ± 0.02 µM
4F2hc-LAT1 [14]
  IC50: 0.177 µM
4F2hc-LAT1 [15]
  IC50: 0.134 µM
Human LAT1 [16]
  IC50(Pichia-LAT2)/IC50(Pichia-LAT1) ratio: about 4.9
Human 4F2hc-LAT1; [21]
  IC50: 0.197 µM
Human 4F2hc-LAT1; P. pastoris cell assay
  IC50(Pichia-4F2hc-LAT2)/IC50(Pichia-4F2hc-LAT1) ratio: about 7.6
  specificity for 4F2hc-LAT1 compared with 4F2hc-LAT2 (from IC50s): about 7.6 fold
4F2hc-LAT1 [8]; S2 cells, ref Oda et al. (2010)
  IC50(S2-LAT2)/IC50(S2-LAT1) ratio: > 500
4F2hc-LAT1 [8]; host S2 cells, ref Endou et al. (2008)
  IC50: 0.19 µM and 0.2 µM
4F2hc-LAT1 [8]; host S2 cells, ref Oda et al. (2010)
  IC50: 0.14 µM
Human LAT1 [9]
  IC50: 0.346 µM

## CC(C)C[C@H](N)C(=O)O [L-leucine]
4F2hc-LAT1 [17]; read-out: 4F2hc-LAT1 IC50 of L-leucine uptake
  IC50: 38 µM
4F2hc-LAT1 [17]; read-out: 4F2hc-LAT1 KM of L-leucine uptake
  Km: 25 ± 3 µM
4F2hc-LAT2 [18]; read-out: 4F2hc-LAT2 IC50 of L-leucine uptake
  IC50: 221 µM
4F2hc-LAT2 [18]; read-out: 4F2hc-LAT2 KM of L-leucine uptake
  Km: 249 ± 22 µM
4F2hc-LAT2 [19]
  Km: 220 µM
Human LAT2
  IC50: 39 µM
Human 4F2hc-LAT2 [6]
  IC50: 210 µM
4F2hc-LAT1 [20]; ref Friesema et al. (2001)
  Km: 46 µM
4F2hc-LAT1 [20]; ref Kanai et al. (1998)
  Km: 18.1 ± 3.4 µM
4F2hc-LAT1 [20]; ref Yanagida et al. (2001)
  Km: 19.7 ± 4.1 µM
Human 4F2hc-LAT1; [21]
  IC50: 22 µM
Human LAT1 [9]
  IC50: 9 µM

## N[C@@H](Cc1cc(I)c(Oc2ccc(O)c(I)c2)c(I)c1)C(=O)O [T3, triiodothyronine]
4F2hc-LAT1 [20]; ref Friesema et al. (2001)
  Km: 0.8 µM
4F2hc-LAT1 [20]; ref Ritchie et al. (1999)
  Km: 1.8 µM

## NC(Cc1cc(I)c(Oc2cc(I)c(O)c(I)c2)c(I)c1)C(=O)O (stereo not shown) [T4, thyroxine]
Human LAT2
  IC50: 25 µM
Human 4F2hc-LAT2 [6]
  IC50: 42 µM
4F2hc-LAT1 [20]; ref Friesema et al. (2001)
  Km: 7.9 µM
4F2hc-LAT1 [20]; ref Ritchie et al. (1999)
  Km: 6.3 µM
Human 4F2hc-LAT1
  IC50: 10 µM
Human 4F2hc-LAT1; P. pastoris cell assay
  specificity for 4F2hc-LAT1 compared with 4F2hc-LAT2 (from IC50s): about four-times higher
4F2hc-LAT1 [8]; host S2 cells, ref Morimoto et al. (2008), read-out: 4F2hc-LAT1 Ki of L-leucine uptake
  Ki: 115 ± 2 µM
Human LAT1 [9]
  IC50: 8 µM
